Results taken from patent US20140303164A1, “THERAPEUTIC COMPOUNDS” (Gilead Sciences, Inc., priority 2013, published 2014).

What follows are compounds tested on HIV-IIIb (assay: Test A: Antiviral Assay in MT4 Cells). Conditions: Human immunodeficiency virus 1, IIIB, MT4, 120 h, read-out: % inhibition at 0.2 μM.
Assay type: cell-based, HIV-1
Procedure: Test A: Antiviral Assay in MT4 Cells
MT-4 cells were next mixed with HIV-IIIb at an m.o.i of 0.003 for 1 hour, after which time 35 μL of virus/cell mixture (2000 cells) was immediately added to each well containing 40 μL of diluted compound. The plates were then incubated at 37° C. for 5 days. […] Cell lysis was carried out by incubating at room temperature for 10 min and then chemiluminescence was read.

SMILES | inhibition at 0.2 µM [%]
NC(=O)c1ccc(-c2cnc3[nH]ccc3c2)c([C@H](Cc2cc(F)cc(F)c2)NC(=O)Cn2nc(C(F)F)c3c2C(F)(F)CCC3(F)F)n1 [Compound 1B, (S)-6-(1-(2-(3-(difluoromethyl)-4,4,7,7-tetrafluoro-4,5,6,7-tetrahydro-1H-indazol-1-yl)acetamido)-2-(3,5-difluorophenyl)ethyl)-5-(1H-pyrrolo[2,3-b]pyridin-5-yl)picolinamide] | 17
CC(C)(O)C#Cc1ccc(-c2cccc3c(=O)[nH]cnc23)c([C@H](Cc2cc(F)cc(F)c2)NC(=O)Cn2nc(C(F)(F)F)c3c2C(F)(F)[C@@H]2C[C@H]32)n1 [Compound 2, 2-((3bS,4aR)-5,5-difluoro-3-(trifluoromethyl)-3b,4,4a,5-tetrahydro-1H-cyclopropa[3,4]cyclopenta[1,2-c]pyrazol-1-yl)-N—((S)-2-(3,5-difluorophenyl)-1-(6-(3-hydroxy-3-methylbut-1-yn-1-yl)-3-(4-oxo-3,4-dihydroquinazolin-8-yl)pyridin-2-yl)ethyl)acetamide] | 79
CC(C)(O)C#Cc1ccc(-c2ccc3c(c2)C(=O)NC32CC2)c([C@H](Cc2cc(F)cc(F)c2)NC(=O)Cn2nc(C(F)(F)F)c3c2C(F)(F)[C@@H]2C[C@H]32)n1 [Compound 3D, 2-((3bS,4aR)-5,5-difluoro-3-(trifluoromethyl)-3b,4,4a,5-tetrahydro-1H-cyclopropa[3,4]cyclopenta[1,2-c]pyrazol-1-yl)-N—((S)-2-(3,5-difluorophenyl)-1-(6-(3-hydroxy-3-methylbut-1-yn-1-yl)-3-(3′-oxospiro[cyclopropane-1,1′-isoindolin]-5′-yl)pyridin-2-yl)ethyl)acetamide] | 82
CC(C)(O)C#Cc1cnc([C@H](Cc2cc(F)cc(F)c2)NC(=O)Cn2nc(C(F)F)c3c2C(F)(F)CCC3(F)F)c(-c2ccc3c(c2)C(=O)NC3)c1 [Compound 4H, (S)-2-(3-(difluoromethyl)-4,4,7,7-tetrafluoro-4,5,6,7-tetrahydro-1H-indazol-1-yl)-N-(2-(3,5-difluorophenyl)-1-(5-(3-hydroxy-3-methylbut-1-ynyl)-3-(3-oxoisoindolin-5-yl)pyridin-2-yl)ethyl)acetamide] | 8
O=C(Cn1nc(C(F)F)c2c1C(F)(F)CCC2(F)F)N[C@@H](Cc1cc(F)cc(F)c1)c1nc(-c2ccc3c(c2)C(=O)NC3)ccc1-c1ccc2c(c1)C(=O)NC2 [Compound 6, (S)—N-(1-(3,6-bis(3-oxoisoindolin-5-yl)pyridin-2-yl)-2-(3,5-difluorophenyl)ethyl)-2-(3-(difluoromethyl)-4,4,7,7-tetrafluoro-4,5,6,7-tetrahydro-1H-indazol-1-yl)acetamide] | 5
O=C(Cn1nc(C(F)F)c2c1C(F)(F)CCC2(F)F)N[C@@H](Cc1cc(F)cc(F)c1)c1nc(-c2cnc3[nH]ccc3c2)ccc1-c1cnc2[nH]ccc2c1 [Compound 7, (S)—N-(1-(3,6-bis(1H-pyrrolo[2,3-b]pyridin-5-yl)pyridin-2-yl)-2-(3,5-difluorophenyl)ethyl)-2-(3-(difluoromethyl)-4,4,7,7-tetrafluoro-4,5,6,7-tetrahydro-1H-indazol-1-yl)acetamide] | 8
COc1cc(-c2ccc(-c3ccc4c(c3)C(=O)NC4)c([C@H](Cc3cc(F)cc(F)c3)NC(=O)Cn3nc(C(F)F)c4c3C(F)(F)CCC4(F)F)n2)ccn1 [Compound 8C, (S)-2-(3-(difluoromethyl)-4,4,7,7-tetrafluoro-4,5,6,7-tetrahydro-1H-indazol-1-yl)-N-(2-(3,5-difluorophenyl)-1-(2′-methoxy-5-(3-oxoisoindolin-5-yl)-[2,4′-bipyridin]-6-yl)ethyl)acetamide] | 6
CC(C)(O)C#Cc1ccc(-c2ccc3c(c2)C(=O)NC3)c([C@H](Cc2cc(F)cc(F)c2)NC(=O)Cn2nc(C(F)F)c3c2C(F)(F)CCC3(F)F)n1 [Compound 9B, (S)-2-(3-(difluoromethyl)-4,4,7,7-tetrafluoro-4,5,6,7-tetrahydro-1H-indazol-1-yl)-N-(2-(3,5-difluorophenyl)-1-(6-(3-hydroxy-3-methylbut-1-yn-1-yl)-3-(3-oxoisoindolin-5-yl)pyridin-2-yl)ethyl)acetamide] | 92
O=C(Cn1nc(C(F)F)c2c1C(F)(F)CCC2(F)F)N[C@@H](Cc1cc(F)cc(F)c1)c1ncc(-c2ccc3c(c2)C(=O)NC3)cc1-c1ccc2c(c1)C(=O)NC2 [Compound 10B, (S)—N-(1-(3,5-bis(3-oxoisoindolin-5-yl)pyridin-2-yl)-2-(3,5-difluorophenyl)ethyl)-2-(3-(difluoromethyl)-4,4,7,7-tetrafluoro-4,5,6,7-tetrahydro-1H-indazol-1-yl)acetamide] | 1
O=C(Cn1nc(C(F)F)c2c1C(F)(F)CCC2(F)F)N[C@@H](Cc1cc(F)cc(F)c1)c1ncc(-c2cnc3[nH]ccc3c2)cc1-c1cnc2[nH]ccc2c1 [Compound 11, (S)—N-(1-(3,5-di(1H-pyrrolo[2,3-b]pyridin-5-yl)pyridin-2-yl)-2-(3,5-difluorophenyl)ethyl)-2-(3-(difluoromethyl)-4,4,7,7-tetrafluoro-4,5,6,7-tetrahydro-1H-indazol-1-yl)acetamide] | 3
O=C(Cn1nc(C(F)F)c2c1C(F)(F)CCC2(F)F)N[C@@H](Cc1cc(F)cc(F)c1)c1nc(-c2cc[nH]c(=O)c2)ccc1-c1ccc2c(c1)C(=O)NC2 [Compound 12, (S)-2-(3-(difluoromethyl)-4,4,7,7-tetrafluoro-4,5,6,7-tetrahydro-1H-indazol-1-yl)-N-(2-(3,5-difluorophenyl)-1-(2′-oxo-5-(3-oxoisoindolin-5-yl)-1′,2′-dihydro-[2,4′-bipyridin]-6-yl)ethyl)acetamide] | 1
CC(C)(O)C#Cc1ccc(-c2cccc3c2CNC3=O)c([C@H](Cc2cc(F)cc(F)c2)NC(=O)Cn2nc(C(F)(F)F)c3c2C(F)(F)[C@@H]2C[C@H]32)n1 [Compound 14E, 2-((3bS,4aR)-5,5-difluoro-3-(trifluoromethyl)-3b,4,4a,5-tetrahydro-1H-cyclopropa[3,4]cyclopenta[1,2-c]pyrazol-1-yl)-N—((S)-2-(3,5-difluorophenyl)-1-(6-(3-hydroxy-3-methylbut-1-yn-1-yl)-3-(1-oxoisoindolin-4-yl)pyridin-2-yl)ethyl)acetamide] | 87

Same assay, conditions: percent inhibition of virus-induced cell killing at 0.2 μM; comparison with previously published compounds (WO 2013/006738)

SMILES | Response at 0.2 μM [%]
NC(=O)c1cc(-c2ccc(-c3ccc(F)c(C(N)=O)c3)c([C@H](Cc3cc(F)cc(F)c3)NC(=O)Cn3nc(C(F)F)c4c3C(F)(F)CCC4(F)F)n2)ccc1F [Compound 5G, (S)-5,5′-(6-(1-(2-(3 (difluoromethyl)-4,4,7,7-tetrafluoro-4,5,6,7-tetrahydro-1H-indazol-1-yl)acetamido)-2-(3,5-difluorophenyl)ethyl)pyridine-2,5-diyl)bis(2-fluorobenz amide)] | 3

Same assay, conditions: percent inhibition of virus-induced cell killing at 2 μM drug concentration, from dose response curve; MT-4 cells, HIV-IIIb, 5 days; values above 100 normalized to 100

SMILES | % inhibition at 2 μM [%]
CC(C)(O)C#Cc1ccc(-c2cccc3c2CNC3=O)c([C@H](Cc2cc(F)cc(F)c2)NC(=O)Cn2nc(C(F)(F)F)c3c2C(F)(F)[C@@H]2C[C@H]32)n1 [Compound 15, 2-((3bS,4aR)-5,5-difluoro-3-(trifluoromethyl)-3b,4,4a,5-tetrahydro-1H-cyclopropa[3,4]cyclopenta[1,2-c]pyrazol-1-yl)-N—((S)-2-(3,5-difluorophenyl)-1-(6-(3-hydroxy-3-methylbut-1-yn-1-yl)-3-(1-oxoisoindolin-4-yl)pyridin-2-yl)ethyl)acetamide] | 94

Same assay, conditions: percent inhibition of virus-induced cell killing at 2 μM; comparison with previously published compounds (WO 2013/006738)

SMILES | Response at 2 μM [%]
NC(=O)c1cc(-c2ccc(-c3ccc(F)c(C(N)=O)c3)c([C@H](Cc3cc(F)cc(F)c3)NC(=O)Cn3nc(C(F)F)c4c3C(F)(F)CCC4(F)F)n2)ccc1F [Compound 5G, (S)-5,5′-(6-(1-(2-(3 (difluoromethyl)-4,4,7,7-tetrafluoro-4,5,6,7-tetrahydro-1H-indazol-1-yl)acetamido)-2-(3,5-difluorophenyl)ethyl)pyridine-2,5-diyl)bis(2-fluorobenz amide)] | 58
